According to PubChem BioAssay AID1259407 (Chemical Carcinogenesis Research Information System (CCRIS), 2018):
Calls of active or inactive are those of the source. The rule behind the calls is not given here.

Tested on: CCRIS mutagenicity, Ames/micronucleus/aberration tests
Assay: CCRIS mutagenicity studies
[1] = Test System: AMES SALMONELLA TYPHIMURIUM, Strain/Indicator: TA98, Metabolic Activation: NONE, Method: STANDARD PLATE
[2] = Test System: AMES SALMONELLA TYPHIMURIUM, Strain/Indicator: TA100, Metabolic Activation: NONE, Method: STANDARD PLATE
[3] = Test System: AMES SALMONELLA TYPHIMURIUM, Strain/Indicator: TA100, Metabolic Activation: RAT, LIVER, S-9, AROCLOR 1254, Method: STANDARD PLATE
[4] = Test System: AMES SALMONELLA TYPHIMURIUM, Strain/Indicator: TA1535, Metabolic Activation: NONE, Method: STANDARD PLATE
[5] = Test System: AMES SALMONELLA TYPHIMURIUM, Strain/Indicator: TA1537, Metabolic Activation: NONE, Method: STANDARD PLATE
[6] = Test System: AMES SALMONELLA TYPHIMURIUM, Strain/Indicator: TA1538, Metabolic Activation: NONE, Method: STANDARD PLATE
[7] = Test System: MOUSE LYMPHOMA, Strain/Indicator: L5178Y (TK+/TK-), Metabolic Activation: NONE, Method: SUSPENSION/PLATE
[8] = Test System: MOUSE LYMPHOMA, Strain/Indicator: L5178Y (TK+/TK-), Metabolic Activation: RAT, LIVER, S-9, AROCLOR 1254, Method: SUSPENSION/PLATE

With `CC[C@H](C)[C@@H]([C@@H](CC(=O)N1CCC[C@H]1[C@H](OC)[C@@H](C)C(=O)N[C@@H](Cc1ccccc1)c1nccs1)OC)N(C)C(=O)[C@@H](NC(=O)[C@H](C(C)C)N(C)C)C(C)C` the mutagenic call (Test System: AMES SALMONELLA TYPHIMURIUM, Strain/Indicator: TA98, Metabolic Activation: HAMSTER, LIVER, S-9, AROCLOR 1254, Method: STANDARD PLATE) was “inactive; negative”, the mutagenic call [1] was “inactive; negative” and the mutagenic call (Test System: AMES SALMONELLA TYPHIMURIUM, Strain/Indicator: TA98, Metabolic Activation: RAT, LIVER, S-9, AROCLOR 1254, Method: STANDARD PLATE) was “inactive; negative”. For the same compound, the mutagenic call (Test System: AMES SALMONELLA TYPHIMURIUM, Strain/Indicator: TA100, Metabolic Activation: HAMSTER, LIVER, S-9, AROCLOR 1254, Method: STANDARD PLATE) was “inactive; negative”, the mutagenic call [2] was “inactive; negative” and the mutagenic call [3] was “inactive; negative”. The mutagenic call (Test System: AMES SALMONELLA TYPHIMURIUM, Strain/Indicator: TA1535, Metabolic Activation: HAMSTER, LIVER, S-9, AROCLOR 1254, Method: STANDARD PLATE) was “inactive; negative”, the mutagenic call [4] was “inactive; negative” and the mutagenic call (Test System: AMES SALMONELLA TYPHIMURIUM, Strain/Indicator: TA1535, Metabolic Activation: RAT, LIVER, S-9, AROCLOR 1254, Method: STANDARD PLATE) was “inactive; negative”. For the same compound, the mutagenic call (Test System: AMES SALMONELLA TYPHIMURIUM, Strain/Indicator: TA1537, Metabolic Activation: HAMSTER, LIVER, S-9, AROCLOR 1254, Method: STANDARD PLATE) was “inactive; negative”, the mutagenic call [5] was “inactive; negative” and the mutagenic call (Test System: AMES SALMONELLA TYPHIMURIUM, Strain/Indicator: TA1537, Metabolic Activation: RAT, LIVER, S-9, AROCLOR 1254, Method: STANDARD PLATE) was “inactive; negative”. The mutagenic call (Test System: AMES SALMONELLA TYPHIMURIUM, Strain/Indicator: TA1538, Metabolic Activation: HAMSTER, LIVER, S-9, AROCLOR 1254, Method: STANDARD PLATE) was “inactive; negative”, the mutagenic call [6] was “inactive; negative” and the mutagenic call (Test System: AMES SALMONELLA TYPHIMURIUM, Strain/Indicator: TA1538, Metabolic Activation: RAT, LIVER, S-9, AROCLOR 1254, Method: STANDARD PLATE) was “inactive; negative”. For the same compound, the mutagenic call [7] was “active; positive. reevaluation of results: inconclusive” and the mutagenic call [8] was “inactive; negative. reevaluation of results: negative”.

With `CN1C(=O)C(O)CC1c1cccnc1` (stereo unspecified) the mutagenic call (Test System: AMES SALMONELLA TYPHIMURIUM, Strain/Indicator: TA98, Metabolic Activation: NONE, Method: PREINCUBATION) was “inactive; negative”, the mutagenic call (Test System: AMES SALMONELLA TYPHIMURIUM, Strain/Indicator: TA98, Metabolic Activation: RAT, LIVER, S-9, AROCLOR 1254 (5%), Method: PREINCUBATION) was “inactive; negative” and the mutagenic call (Test System: AMES SALMONELLA TYPHIMURIUM, Strain/Indicator: TA100, Metabolic Activation: NONE, Method: PREINCUBATION) was “inactive; negative”. The mutagenic call (Test System: AMES SALMONELLA TYPHIMURIUM, Strain/Indicator: TA100, Metabolic Activation: RAT, LIVER, S-9, AROCLOR 1254 (5%), Method: PREINCUBATION) was “inactive; negative”, the mutagenic call (Test System: AMES SALMONELLA TYPHIMURIUM, Strain/Indicator: TA1535, Metabolic Activation: NONE, Method: PREINCUBATION) was “inactive; negative” and the mutagenic call (Test System: AMES SALMONELLA TYPHIMURIUM, Strain/Indicator: TA1535, Metabolic Activation: RAT, LIVER, S-9, AROCLOR 1254 (5%), Method: PREINCUBATION) was “inactive; negative”. The mutagenic call (Test System: AMES SALMONELLA TYPHIMURIUM, Strain/Indicator: TA1537, Metabolic Activation: NONE, Method: PREINCUBATION) was “inactive; negative”, the mutagenic call (Test System: AMES SALMONELLA TYPHIMURIUM, Strain/Indicator: TA1537, Metabolic Activation: RAT, LIVER, S-9, AROCLOR 1254 (5%), Method: PREINCUBATION) was “inactive; negative” and the mutagenic call (Test System: AMES SALMONELLA TYPHIMURIUM, Strain/Indicator: TA1538, Metabolic Activation: NONE, Method: PREINCUBATION) was “inactive; negative”. The mutagenic call (Test System: AMES SALMONELLA TYPHIMURIUM, Strain/Indicator: TA1538, Metabolic Activation: RAT, LIVER, S-9, AROCLOR 1254 (5%), Method: PREINCUBATION) was “inactive; negative”.

`CC(=O)O[C@@]1(C)C(=O)OC/C2=C/CN(C)CC[C@@H](OC(=O)[C@]3(C[C@H]1C)O[C@@H]3C)C2=O` was tested, and the mutagenic call (Test System: UDS RAT HEPATOCYTES, Strain/Indicator: THY INCORP, Metabolic Activation: NONE, Method: AUTORADIOGRAPHY) was “active; positive”.

With `CC(C)(Br)C(=O)NCc1ccccc1` the mutagenic call (Test System: AMES SALMONELLA TYPHIMURIUM, Strain/Indicator: TA100, Metabolic Activation: MOUSE, LIVER, S-9, AROCLOR 1254, Method: STANDARD PLATE) was “inactive; negative” and the mutagenic call [2] was “inactive; negative”.

With `CC(O)CN1CC(C)OC1=O` (stereo unspecified) the mutagenic call (Test System: AMES SALMONELLA TYPHIMURIUM, Strain/Indicator: TA98, Metabolic Activation: HAMSTER, LIVER, S-9, AROCLOR 1254 (10%), Method: STANDARD PLATE) was “inactive; negative”, the mutagenic call [1] was “inactive; negative” and the mutagenic call (Test System: AMES SALMONELLA TYPHIMURIUM, Strain/Indicator: TA98, Metabolic Activation: RAT, LIVER, S-9, AROCLOR 1254 (10%), Method: STANDARD PLATE) was “inactive; negative”. For the same compound, the mutagenic call (Test System: AMES SALMONELLA TYPHIMURIUM, Strain/Indicator: TA100, Metabolic Activation: HAMSTER, LIVER, S-9, AROCLOR 1254 (10%), Method: STANDARD PLATE) was “inactive; negative”, the mutagenic call [2] was “inactive; negative” and the mutagenic call (Test System: AMES SALMONELLA TYPHIMURIUM, Strain/Indicator: TA100, Metabolic Activation: RAT, LIVER, S-9, AROCLOR 1254 (10%), Method: STANDARD PLATE) was “inactive; negative”. For the same compound, the mutagenic call (Test System: AMES SALMONELLA TYPHIMURIUM, Strain/Indicator: TA1535, Metabolic Activation: HAMSTER, LIVER, S-9, AROCLOR 1254 (10%), Method: STANDARD PLATE) was “inactive; negative”, the mutagenic call [4] was “inactive; negative” and the mutagenic call (Test System: AMES SALMONELLA TYPHIMURIUM, Strain/Indicator: TA1535, Metabolic Activation: RAT, LIVER, S-9, AROCLOR 1254 (10%), Method: STANDARD PLATE) was “inactive; negative”. For the same compound, the mutagenic call (Test System: AMES SALMONELLA TYPHIMURIUM, Strain/Indicator: TA1537, Metabolic Activation: HAMSTER, LIVER, S-9, AROCLOR 1254 (10%), Method: STANDARD PLATE) was “inactive; negative”, the mutagenic call [5] was “inactive; negative” and the mutagenic call (Test System: AMES SALMONELLA TYPHIMURIUM, Strain/Indicator: TA1537, Metabolic Activation: RAT, LIVER, S-9, AROCLOR 1254 (10%), Method: STANDARD PLATE) was “inactive; negative”. The mutagenic call (Test System: AMES SALMONELLA TYPHIMURIUM, Strain/Indicator: TA1538, Metabolic Activation: HAMSTER, LIVER, S-9, AROCLOR 1254 (10%), Method: STANDARD PLATE) was “inactive; negative”, the mutagenic call [6] was “inactive; negative” and the mutagenic call (Test System: AMES SALMONELLA TYPHIMURIUM, Strain/Indicator: TA1538, Metabolic Activation: RAT, LIVER, S-9, AROCLOR 1254 (10%), Method: STANDARD PLATE) was “inactive; negative”. The mutagenic call [7] was “active; positive. reevaluation of results: positive” and the mutagenic call [8] was “active; positive. reevaluation of results: equivocal”.

In the case of `O=C1OC[C@@H](Cc2cccc(O)c2)[C@@H]1Cc1cccc(O)c1`, the mutagenic call (Test System: CHINESE HAMSTER V79 CELLS, Strain/Indicator: V79 CELLS (HPRT)/6-THIOGUANINE, Metabolic Activation: NONE, Method: SUSPENSION/PLATE) is reported as “inactive; negative” and the mutagenic call (Test System: CHINESE HAMSTER V-79, Strain/Indicator: V-79 (HPRT)/6-THIOGUANINE, Metabolic Activation: NONE) is reported as “inactive; negative”.

In the case of `CC(=O)c1ccc[nH]1`, the mutagenic call [2] is reported as “inactive; negative” and the mutagenic call [3] is reported as “inactive; negative”.
